Data set [1] concerns the target T1, human neuronal homopentameric α7 nAChR (Homo sapiens, UniProt P36544).
T1 construct: expressed in transfected cells; host or cells: mouse neuroblastoma Neuro2a, transient transfection (α7 nAChR-pCEP4) with human Ric-3 (Ric3-pCMV6-XL5, OriGene)
Description: Calcium imaging of ACh-evoked [Ca2+]i rise in Neuro2a cells expressing α7 nAChR. In kind it is cell-based. As to conditions: 10 μM ACh (EC50); transfected Neuro2a cells, PNU120596 10 μM; 15 min preincubation; mean ± SEM, 4 independent experiments; read-out: IC50, inhibition of ACh-evoked calcium response of α7 nAChR. The method, then: Mouse neuroblastoma Neuro2a cells were purchased from the Russian collection of cell cultures (Institute of Cytology, Russian Academy of Sciences, Saint Petersburg, Russia). Cells were cultured in DMEM (Paneco, Moscow, Russia) supplemented with 10% FBS. They were sub-cultured the day before transfection and were plated at a density of 10,000 cells per well in a 96-well black plate. On the next day Neuro2a cells were transiently transfected with plasmids coding mouse muscle α1β1δε nAChR (pRBG4-vector) and a fluorescent calcium sensor Case12 (pCase12-cyto vector, Evrogen, Moscow, Russia) in a molar ratio of 2:1 following a lipofectamine transfection protocol (ThermoFisher Scientific, Waltham, MA, USA). […]
The plates were transferred to the multimodal microplate reader Hidex Sence (Hidex, Turku, Finland) where the cells were excited by light of 485 nm wavelength and emitted fluorescence was detected at 535 ± 10 nm. Fluorescence was recorded every 2 s for three minutes following agonist addition. Responses were measured as peak intensity minus basal fluorescence level and were expressed as a percentage of the maximal response obtained to agonist. Data files were analyzed using Hidex Sence software (Hidex, Turku, Finland) and OriginPro 7.5 software (OriginLab, Northampton, MA, USA, for statistical analysis).

A short description of a further data set: in vivo. Particulars: male, ICR, mouse, in vivo. The method, then: (§1) Az acute toxicity was estimated for its intravenous (iv) and intramuscular (im) administration to male ICR mice in a stepwise procedure.
(§2) For the iv route of administration, 20 mice were randomly divided in 5 groups of 4 animals each. The animals of each group received a single dose of Az (0.3, 0.4, 0.5, 0.6, or 0.7 mg/kg, respectively) injected into the lateral tail vein at a volume of 1 mL/kg. For the im route of administration, first two experimental groups of 3 animals each were formed. Az at doses of 0.75 and 1.0 mg/kg, respectively, was injected into the quadriceps muscle of the thigh (quadriceps femoris muscle) of two mouse hind limbs at a volume of 0.5 mL/kg to each muscle. Then, five experimental groups of 5 animals each were formed. Az was injected into the quadriceps muscle of the thigh (quadriceps femoris muscle) of the two hind limbs of male ICR mice at doses of 0.8, 0.775, 0.75, 0.725 and 0.7 mg/kg. The injection volume to each limb was 1 mL/kg. Further, neurotoxic manifestations were recorded in animals at 5, 10, 20, 30, 60 and 90 min and 24 h after administration using the functional observation battery, the number of death was counted as well.
(§3) For the iv and im route of administration, the median lethal dose (LD50) was calculated using a probit analysis. For the im route of administration, the maximum tolerated dose was determined.
(§4) Rocuronium was administered intramuscularly at doses of 0.13 mg/kg (n = 1), 0.1 mg/kg (n = 4) and 0.08 mg/kg (n = 4) in the triceps of the forelimbs of male ICR mice (8–9 weeks old). Control animals were injected with saline (n = 4). The volume of administration was 0.5 mL/kg in each limb.

The next data set has as its system male ICR mice. In words: in vivo. How it is done: as §1, §2, §3, §4
For another data set, the system named is 5-HT3 receptors. Particulars: concentration up to 10 μM; cited from earlier work.
In data set [2] the test system is peritoneal macrophages of male ICR mice. Type of data set: in vivo, mouse. As to conditions: 7-day im 0.15 and 0.5 mg/kg. The method, then:
For carrying out these experiments 90 male ICR mice were used, they were divided equally into three groups (30 animals per group) for each study and in these groups they were subdivided into subgroups of 10 mice each and treated as follows: mice of the first subgroup were injected with normal saline im, the second subgroup animals were treated with Az (0.15 mg/kg im) and the animals of the third subgroup were treated with Az (0.50 mg/kg im). The drugs were injected into the quadriceps muscle of the thigh (musculus quadriceps femoris) daily for seven days (1 mL/kg).
On the next day after the seven-day course of the Az administration, the mice of the third group (30 animals) were injected intraperitoneally with 2 mL of ink particles suspension. After 10 min the mice were euthanized (CO2 inhalation) with a subsequent isolation of the peritoneal exudate from their abdominal cavity. In the exudate (1 μL) the total number of peritoneal macrophages and the number of the ink particle-containing (phagocytic) cells among them were counted using a Gorjaev’s chamber.

Data set [3] relates to hprt gene of CHO-k1 cells.

Where “and” joins values, the source holds several entries; their conditions need not be identical. Equal entries are not always repeated. No end group written: not given here.

T1 sequence (P36544 23-502): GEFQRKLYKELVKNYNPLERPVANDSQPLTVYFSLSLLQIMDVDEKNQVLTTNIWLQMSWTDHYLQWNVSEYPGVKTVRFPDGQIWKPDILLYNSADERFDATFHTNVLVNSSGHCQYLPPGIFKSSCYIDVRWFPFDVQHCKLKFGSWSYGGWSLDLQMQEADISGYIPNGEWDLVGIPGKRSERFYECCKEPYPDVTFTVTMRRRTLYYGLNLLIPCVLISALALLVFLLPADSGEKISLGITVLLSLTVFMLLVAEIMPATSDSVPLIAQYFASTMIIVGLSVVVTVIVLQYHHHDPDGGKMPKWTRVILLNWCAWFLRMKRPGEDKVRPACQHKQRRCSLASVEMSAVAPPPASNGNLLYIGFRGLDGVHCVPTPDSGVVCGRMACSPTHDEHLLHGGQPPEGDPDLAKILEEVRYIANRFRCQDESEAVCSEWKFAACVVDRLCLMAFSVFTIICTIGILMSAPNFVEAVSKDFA

Regarding “DNWWPKPPHQGPRPPRPRPKP-NH2 [Az, azemiopsin]”, the IC50 in data set [1] was 2670 nM and ~3000 nM. Also, the median lethal dose (LD50) at 24 h in “in vivo” (im) came out at 0.732 ± 0.13 mg/kg; in “in vivo” (iv) it was 0.51 mg/kg. Further, the MTD at 24 h in the data set “in vivo” (im) came to 0.7 mg/kg. Moreover, the “time of death after administration” value in the data set with male ICR mice (im 0.725 mg/kg) was 19.7 ± 5.9 min; in the data set on male ICR mice (im 0.75 mg/kg) it was 28.8 ± 16.0 min; in the data set with male ICR mice (im 0.775 mg/kg), 15.8 ± 4.3 min; in the data set with male ICR mice (im 0.8 mg/kg), 12.2 ± 1.8 min. The toxicity signs entry in the data set with male ICR mice (im dose of 0.3 mg/kg and lower (grip strength tests)) is “No toxicity signs”. In the data set with male ICR mice (im, large doses), the “time of appearance of visible toxic signs after administration” value was in the range of 5 to 7 min. For the same substance, the “time of complete recovery from the toxic effect after administration” value in the data set with male ICR mice (im, large doses) was 24 h. This substance also returned an LD50 in the data set on male ICR mice (intravenous administration, male ICR mice, probit analysis) of 0.51 ± 0.06 mg/kg. Besides, in the data set on 5-HT3 receptors, the “activity against 5-HT3 receptors” value was “no activity”. Moreover, the “phagocytic activity (engulfing ink particles) of peritoneal macrophages” value in data set [2] is “did not significantly change”. In addition, the “frequency of mutations in the hprt gene” value in data set [3] (Az 2.8 to 2000 μg/mL, 4 h, with or without S9, spontaneous 25.2 ± 1.6) is 23.5–30.2 × 10^−6. Besides, the mutagenic capacity result in data set [3] (Az up to 2000 μg/mL, CHO-k1 cells) was “did not demonstrate any mutagenic capacity”.

Usually IC50 stands for the concentration at which inhibition is half-maximal. The term LD50 denotes the dose expected to kill half of the subjects tested. Read a low LD50 as a more toxic substance.

Source of the values: PMC5793121 (Toxins, 2018).
